From PMC6010092, “Novel hits for acetylcholinesterase inhibition derived by docking-based screening on ZINC database” (Journal of Enzyme Inhibition and Medicinal Chemistry, 2018)
Entries after “also recorded” stand apart in the source; their conditions may differ. Where two headings read alike, the source gives them in different places.

Key:
[1] = biological target: T1, AChE from Electrophorus electricus (eeAChE) (Electrophorus electricus, UniProt O42275); assay: biochemical; assay type: binding
T1 construct: purchased Sigma Aldrich
Protocol: The ITC measurements[40] were performed on NanoITC tool (TA Instruments, Lindon, UT) with 190 µL sample cell and 50 µL syringe. […] The tested compounds were prepared in 5 mM stock solutions in ethanol and diluted to 0.5 mM in 50 mM Tris-HCl pH 7.4 buffer. All samples were degassed prior the experiments. The AChE solution was placed into the sample cell and titrated by the tested compounds in 25 steps of 2 µL at 5 min intervals at 25 °C. The blank samples (buffer lacking AChE) were titrated at the same conditions. The corresponding Kd values were calculated using NanoAnalyze software (TA Instruments, Lindon, UT).

[2] = system: NEURO-2A cells; assay: Neurotoxicity test, MTT-dye reduction assay; assay type: cell-based; details: for IC50: Mus musculus, N2a, 72-h incubation, MTT, read-out: IC50 Neuro2A; for Neurotoxicity on Neuro-2A cells (in words): concentrations up to 100 µM
Protocol: Murine neuroblastoma NEURO-2 A cells (German collection DSMZ, Braunschweig, Germany) were cultivated under standard conditions: complete medium (90% DMEM, 10% heat-inactivated FBS, and 1 × non-essential amino acids); 37 °C and5% CO2 in fully humidified atmosphere. The cell line was kept in the logarithmic growth phase by splitting 1:4 once a week using trypsin/EDTA. About 30% of the cells grow like neuronal cells. For the experimental evaluation of the cytotoxicity NEURO-2A, cells were plated in 96-well flat-bottomed cell culture plates at the recommended density of 1 × 10^6 cells/25 cm^2. After 24 h, the cells were treated with various concentrations of the investigational compounds and after 72-h incubation, a MTT-dye reduction assay was performed. Briefly, at the end of incubation, a MTT stock solution (10 mg/ml in PBS) was added (10 µL/well). Plates were further incubated at 37 °C for 4 h. Next, the formazan crystals were dissolved by the addition of 110 µL/well 5% formic acid in 2-propanol (v/v). Absorption was measured at 580 nm wavelength on an automated ELISA reader Labexim LMR1. At least six wells per concentration were used, and data were processed using the GraphPad Prism 5.0 software 2.

[3] = PAMPA BBB permeability; assay type: in vitro ADME; details: −logPe, pH 7.4, 25 °C, 4 h, lipid BBB-1
Protocol: The intestinal and BBB permeabilities were measured by PAMPA Permeability Analyzer (pION Inc.) at the following settings: wavelength analysed 250–500 nm, pH 7.4, temperature 25 °C, permeation time 4 h, lipid formulation GIT-0 and stirring 60 rpm and BBB-1 and no stirring, respectively. […]. Carbamazepine, ketoprofen, and ranitidine were used as controls for intestinal permeability. Theophylline, progesterone, and propranolol were used as controls for BBB permeability.

[4] = PAMPA GIT (intestinal) permeability; assay type: in vitro ADME; details: −logPe, pH 6.2, 25 °C, 4 h, lipid GIT-0
[5] = system: NEURO-2A cells; details: read-out: IC50 Neuro2A; cited from earlier work
[6] = cited from earlier work

T1 sequence (O42275 24-633): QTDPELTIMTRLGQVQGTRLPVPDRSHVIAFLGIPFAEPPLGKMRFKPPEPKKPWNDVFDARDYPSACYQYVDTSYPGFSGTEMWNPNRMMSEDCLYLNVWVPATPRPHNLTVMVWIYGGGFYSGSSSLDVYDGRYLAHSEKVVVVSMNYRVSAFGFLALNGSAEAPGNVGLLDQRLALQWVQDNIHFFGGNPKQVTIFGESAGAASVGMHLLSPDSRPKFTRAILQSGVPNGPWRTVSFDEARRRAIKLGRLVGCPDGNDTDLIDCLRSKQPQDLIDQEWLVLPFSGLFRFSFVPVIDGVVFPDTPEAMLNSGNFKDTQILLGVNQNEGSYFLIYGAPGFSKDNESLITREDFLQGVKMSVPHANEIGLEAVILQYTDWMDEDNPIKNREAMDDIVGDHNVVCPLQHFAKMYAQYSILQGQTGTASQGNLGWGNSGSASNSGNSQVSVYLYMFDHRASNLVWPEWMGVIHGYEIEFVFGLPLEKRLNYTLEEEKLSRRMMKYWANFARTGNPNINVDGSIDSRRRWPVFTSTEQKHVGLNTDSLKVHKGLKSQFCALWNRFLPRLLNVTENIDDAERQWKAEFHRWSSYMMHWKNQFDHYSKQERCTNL

Row | SMILES | Kd ([1]; ITC, read-out: Kd) [nM] | IC50 [2] [µM] | Neurotoxicity on Neuro-2A cells (in words) [2] | pPe pH 7.4 BBB PAMPA [3] | pPe pH 6.2 GIT PAMPA [4] | Kd ITC ([1]; 25 °C, pH 7.4) | Kd ([1]; 25 °C, pH 7.4, read-out: Kd ITC) [nM] | IC50 [5] [µM] | CL [6] | VD^ss [6] | t1/2 [6]
1 | CN(Cc1ccccc1-c1ccccc1)C(=O)CCn1ccccc1=O [Compound 1, N-Methyl-3-(2-oxo-1-pyridyl)-N-[(2-phenylphenyl)methyl]propanamide] | 525 | > 100 | non-toxic | 4.540 | 4.268 | – | – | – | – | – | –
2 | O=C(CCn1ccc2ccccc21)NCCCn1cnc2ccccc21 [Compound 2, N-[3-(benzimidazol-1-yl)propyl]-3-indol-1-yl-propanamide] | 618 | > 100 | absence of toxicity; also recorded: non-toxic | 4.452 | 4.339 | – | – | – | – | – | –
3 | O=C(CCn1nc(-c2ccccc2)ccc1=O)NCCc1ccccc1 [Compound 3, 3-(6-Oxo-3-phenylpyridazin-1(6H)-yl)-N-phenethylpropanamide] | 555 | > 100 | non-toxic | 4.294 | 4.207 | – | – | – | – | – | –
4 | Cn1cc(CNCc2ccc3ncccc3c2)c(-c2ccccc2F)n1 [Compound 4, 1-[3-(2-fluorophenyl)-1-methyl-pyrazol-4-yl]-N-(6-quinolylmethyl) methanamine] | 618 | 35 | – | 4.258 | 4.251 | – | – | – | – | – | –
5 | O=C(Cn1ccc2ccccc21)NCCOc1cccc2cccnc12 [Compound 5, 2-indol-1-yl-N-[2-(8-quinolyloxy)ethyl]acetamide] | 517 | > 100 | non-toxic | 4.146 | 4.230 | – | – | – | – | – | –
6 | Cn1cc(CNC(=O)N2CCC(C(N)=O)CC2)c(-c2ccccc2)n1 [Compound 6, N^1-((1-methyl-3-phenyl-1H-pyrazol-4-yl)methyl)piperidine-1,4-dicarboxamide] | 613 | > 100 | non-toxic | 5.008 | 4.428 | – | – | – | – | – | –
7 | Cn1cc(CNCCc2cccc3cccnc23)c(-c2cccnc2)n1 [Compound 7, N-((1-methyl-3-(pyridin-3-yl)-1H-pyrazol-4-yl)methyl)-2-(quinolin-8-yl)ethanamine] | 577 | > 100 | non-toxic | 4.267 | 4.246 | – | – | – | – | – | –
8 | COc1ccc(CC(=O)N[C@@H](CO)[C@@H](O)c2ccc(N)cc2)cc1 [Compound 8, N-((1S,2S)-1-(4-aminophenyl)-1,3-dihydroxypropan-2-yl)-2-(4-methoxyphenyl)acetamide] | 682 | > 100 | non-toxic | 4.731 | 4.469 | – | – | – | – | – | –
9 | O=C(Cn1c(=O)[nH]c(=O)c2ccccc21)NCCc1cccc(F)c1 [Compound 9, 2–(2,4-dioxoquinazolin-1-yl)-N-[2-(3-fluorophenyl)ethyl]acetamide] | – | > 100 | – | 4.628 | 4.361 | does not interact; also recorded: Non-binder | – | – | – | – | –
10 | CC(C)n1cc(CC(=O)NCCc2ccc(O)cc2)c2ccccc21 [Compound 10, N-[2-(4-hydroxyphenyl)ethyl]-2-(1-isopropylindol-3-yl)acetamide] | – | 53 | toxic | 4.311 | 4.202 | – | 735 | – | – | – | –
11 | COc1ccc2c3c1O[C@H]1C[C@@H](O)C=C[C@@]31CCN(C)C2 [GAL, galantamine] | – | – | – | – | – | – | – | > 50 | 5.60[47] mL/min/kg | 2.30[47] L/kg | 5.30[47] h
